Consider 2 compounds from the kinase profiling compilation of Christmann-Franck et al. (2016).

Among the targets are TXK (human) (UniProt P42681); BRSK2 (human) (UniProt Q8IWQ3); PTK2B (human) (UniProt Q14289); RPS6KA4 KD1 (human) (UniProt O75676); PTK2 (human) (UniProt Q05397); PAK2 (human) (UniProt Q13177); PRKAA1 (human) (UniProt Q13131); RPS6KA5 KD1 (human) (UniProt O75582); LTK (human) (UniProt P29376).
Assay [1] concerns the target TYK2 JH1 catalytic (human) (UniProt P29597).

Sequence of PTK2B (human) (Q14289 whole entry, looked up): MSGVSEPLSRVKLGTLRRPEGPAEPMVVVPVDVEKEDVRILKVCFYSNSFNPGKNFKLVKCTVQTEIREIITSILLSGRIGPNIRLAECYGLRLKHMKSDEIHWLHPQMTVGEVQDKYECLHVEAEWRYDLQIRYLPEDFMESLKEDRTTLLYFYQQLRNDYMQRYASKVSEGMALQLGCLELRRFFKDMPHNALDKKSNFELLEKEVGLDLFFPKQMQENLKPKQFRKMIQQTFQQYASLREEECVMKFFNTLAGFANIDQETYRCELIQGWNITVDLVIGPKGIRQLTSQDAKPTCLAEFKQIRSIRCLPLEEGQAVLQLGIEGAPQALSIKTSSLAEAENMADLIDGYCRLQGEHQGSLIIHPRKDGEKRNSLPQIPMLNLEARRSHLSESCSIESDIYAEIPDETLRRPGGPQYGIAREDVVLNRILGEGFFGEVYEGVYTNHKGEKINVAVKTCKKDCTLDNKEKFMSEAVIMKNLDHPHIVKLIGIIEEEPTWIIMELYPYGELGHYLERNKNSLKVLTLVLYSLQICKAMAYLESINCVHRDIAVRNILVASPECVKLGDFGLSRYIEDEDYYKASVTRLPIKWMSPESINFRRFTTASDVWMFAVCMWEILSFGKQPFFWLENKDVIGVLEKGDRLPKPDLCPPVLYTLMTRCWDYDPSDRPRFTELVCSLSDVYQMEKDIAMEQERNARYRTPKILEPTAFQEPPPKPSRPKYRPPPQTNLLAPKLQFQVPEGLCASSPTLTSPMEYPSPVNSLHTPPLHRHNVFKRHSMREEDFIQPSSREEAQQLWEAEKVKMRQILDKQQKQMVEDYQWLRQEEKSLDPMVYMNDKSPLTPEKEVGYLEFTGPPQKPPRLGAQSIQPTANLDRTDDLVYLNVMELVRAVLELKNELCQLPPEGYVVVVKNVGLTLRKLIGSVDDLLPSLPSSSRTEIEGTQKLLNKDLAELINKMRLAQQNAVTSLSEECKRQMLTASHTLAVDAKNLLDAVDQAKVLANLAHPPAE
Sequence of TXK (human) (P42681 whole entry, looked up): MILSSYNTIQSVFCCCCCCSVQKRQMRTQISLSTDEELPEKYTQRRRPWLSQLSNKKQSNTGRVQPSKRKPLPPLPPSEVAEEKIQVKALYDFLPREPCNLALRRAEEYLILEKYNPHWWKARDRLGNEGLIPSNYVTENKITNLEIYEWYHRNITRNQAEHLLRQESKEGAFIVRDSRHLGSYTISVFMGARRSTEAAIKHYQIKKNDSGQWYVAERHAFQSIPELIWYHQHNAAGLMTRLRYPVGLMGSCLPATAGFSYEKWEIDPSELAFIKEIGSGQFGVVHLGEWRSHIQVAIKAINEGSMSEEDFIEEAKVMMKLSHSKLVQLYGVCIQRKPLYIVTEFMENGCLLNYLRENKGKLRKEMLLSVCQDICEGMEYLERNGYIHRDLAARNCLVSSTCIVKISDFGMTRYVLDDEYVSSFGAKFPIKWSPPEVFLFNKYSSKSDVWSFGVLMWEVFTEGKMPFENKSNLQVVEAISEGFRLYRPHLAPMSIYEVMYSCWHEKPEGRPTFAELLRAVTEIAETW
Sequence of PRKAA1 (human) (Q13131 whole entry, looked up): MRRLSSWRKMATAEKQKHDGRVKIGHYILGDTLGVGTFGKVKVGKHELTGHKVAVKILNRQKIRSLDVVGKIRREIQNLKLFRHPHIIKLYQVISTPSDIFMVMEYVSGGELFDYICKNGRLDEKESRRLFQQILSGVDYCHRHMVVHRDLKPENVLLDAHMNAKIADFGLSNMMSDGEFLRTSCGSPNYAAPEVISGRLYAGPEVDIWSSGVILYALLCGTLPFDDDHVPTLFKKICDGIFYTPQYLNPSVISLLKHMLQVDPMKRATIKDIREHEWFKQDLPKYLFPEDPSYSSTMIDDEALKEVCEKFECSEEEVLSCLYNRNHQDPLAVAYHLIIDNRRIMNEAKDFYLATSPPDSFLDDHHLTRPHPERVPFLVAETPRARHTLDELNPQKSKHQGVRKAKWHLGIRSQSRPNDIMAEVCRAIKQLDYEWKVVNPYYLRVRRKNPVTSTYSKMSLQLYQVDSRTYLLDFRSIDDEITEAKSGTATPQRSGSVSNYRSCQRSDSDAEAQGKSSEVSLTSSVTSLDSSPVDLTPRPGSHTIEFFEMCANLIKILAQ
Sequence of LTK (human) (P29376 whole entry, looked up): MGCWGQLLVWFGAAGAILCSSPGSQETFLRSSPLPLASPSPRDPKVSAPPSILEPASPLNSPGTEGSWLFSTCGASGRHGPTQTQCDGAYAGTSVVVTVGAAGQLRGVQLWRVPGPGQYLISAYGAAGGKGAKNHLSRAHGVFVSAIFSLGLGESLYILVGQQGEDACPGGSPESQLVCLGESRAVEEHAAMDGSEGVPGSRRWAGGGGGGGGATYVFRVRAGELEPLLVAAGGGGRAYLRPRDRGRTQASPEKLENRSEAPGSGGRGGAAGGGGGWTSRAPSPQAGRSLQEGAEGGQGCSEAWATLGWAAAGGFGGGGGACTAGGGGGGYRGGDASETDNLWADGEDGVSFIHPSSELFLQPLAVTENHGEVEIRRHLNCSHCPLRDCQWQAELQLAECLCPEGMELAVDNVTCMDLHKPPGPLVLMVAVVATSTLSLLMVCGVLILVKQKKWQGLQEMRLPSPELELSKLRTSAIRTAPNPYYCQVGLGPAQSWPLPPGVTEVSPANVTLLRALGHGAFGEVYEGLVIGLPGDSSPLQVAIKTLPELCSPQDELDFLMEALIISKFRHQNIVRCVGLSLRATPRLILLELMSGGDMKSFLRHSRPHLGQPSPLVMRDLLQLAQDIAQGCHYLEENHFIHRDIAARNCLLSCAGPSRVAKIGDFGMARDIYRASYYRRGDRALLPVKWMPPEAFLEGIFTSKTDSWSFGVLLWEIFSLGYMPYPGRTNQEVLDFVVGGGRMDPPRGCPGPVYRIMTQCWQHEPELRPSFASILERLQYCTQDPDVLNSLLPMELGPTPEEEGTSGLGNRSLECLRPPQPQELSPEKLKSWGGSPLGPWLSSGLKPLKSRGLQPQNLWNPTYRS
Sequence of PAK2 (human) (Q13177 whole entry, looked up): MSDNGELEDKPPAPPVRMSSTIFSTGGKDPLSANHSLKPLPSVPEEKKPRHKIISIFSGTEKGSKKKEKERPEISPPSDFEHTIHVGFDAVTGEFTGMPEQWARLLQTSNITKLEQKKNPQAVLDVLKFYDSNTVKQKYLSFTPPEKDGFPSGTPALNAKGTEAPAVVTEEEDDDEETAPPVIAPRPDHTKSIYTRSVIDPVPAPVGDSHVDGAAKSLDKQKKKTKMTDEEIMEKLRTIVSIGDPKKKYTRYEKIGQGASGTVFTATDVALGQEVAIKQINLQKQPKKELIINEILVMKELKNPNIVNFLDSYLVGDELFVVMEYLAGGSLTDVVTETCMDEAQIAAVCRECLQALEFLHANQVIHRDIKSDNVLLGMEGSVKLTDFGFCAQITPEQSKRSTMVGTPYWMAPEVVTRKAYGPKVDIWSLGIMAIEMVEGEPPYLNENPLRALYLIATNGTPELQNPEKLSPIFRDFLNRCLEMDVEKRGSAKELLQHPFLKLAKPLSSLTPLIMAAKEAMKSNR
Sequence of BRSK2 (human) (Q8IWQ3 whole entry, looked up): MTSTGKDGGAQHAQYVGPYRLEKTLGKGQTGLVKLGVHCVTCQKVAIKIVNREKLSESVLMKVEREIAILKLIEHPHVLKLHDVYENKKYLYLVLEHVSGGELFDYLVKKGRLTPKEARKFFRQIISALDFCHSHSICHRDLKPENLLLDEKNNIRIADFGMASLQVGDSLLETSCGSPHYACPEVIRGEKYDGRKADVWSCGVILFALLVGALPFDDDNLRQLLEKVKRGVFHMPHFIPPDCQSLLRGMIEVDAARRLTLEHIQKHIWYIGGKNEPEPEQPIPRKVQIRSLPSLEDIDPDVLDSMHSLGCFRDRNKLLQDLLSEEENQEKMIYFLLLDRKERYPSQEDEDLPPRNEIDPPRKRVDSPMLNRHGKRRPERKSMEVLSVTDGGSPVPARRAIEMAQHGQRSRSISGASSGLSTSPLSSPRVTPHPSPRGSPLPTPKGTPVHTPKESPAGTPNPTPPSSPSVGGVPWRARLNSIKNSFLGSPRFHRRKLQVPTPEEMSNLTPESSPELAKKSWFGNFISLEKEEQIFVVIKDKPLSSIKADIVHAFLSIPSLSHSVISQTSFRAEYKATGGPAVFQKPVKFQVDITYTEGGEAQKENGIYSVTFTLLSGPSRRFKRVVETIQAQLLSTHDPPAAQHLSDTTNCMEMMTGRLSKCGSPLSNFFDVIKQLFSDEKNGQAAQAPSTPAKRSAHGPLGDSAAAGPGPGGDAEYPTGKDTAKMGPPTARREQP
Sequence of RPS6KA5 KD1 (human) (O75582 whole entry, looked up): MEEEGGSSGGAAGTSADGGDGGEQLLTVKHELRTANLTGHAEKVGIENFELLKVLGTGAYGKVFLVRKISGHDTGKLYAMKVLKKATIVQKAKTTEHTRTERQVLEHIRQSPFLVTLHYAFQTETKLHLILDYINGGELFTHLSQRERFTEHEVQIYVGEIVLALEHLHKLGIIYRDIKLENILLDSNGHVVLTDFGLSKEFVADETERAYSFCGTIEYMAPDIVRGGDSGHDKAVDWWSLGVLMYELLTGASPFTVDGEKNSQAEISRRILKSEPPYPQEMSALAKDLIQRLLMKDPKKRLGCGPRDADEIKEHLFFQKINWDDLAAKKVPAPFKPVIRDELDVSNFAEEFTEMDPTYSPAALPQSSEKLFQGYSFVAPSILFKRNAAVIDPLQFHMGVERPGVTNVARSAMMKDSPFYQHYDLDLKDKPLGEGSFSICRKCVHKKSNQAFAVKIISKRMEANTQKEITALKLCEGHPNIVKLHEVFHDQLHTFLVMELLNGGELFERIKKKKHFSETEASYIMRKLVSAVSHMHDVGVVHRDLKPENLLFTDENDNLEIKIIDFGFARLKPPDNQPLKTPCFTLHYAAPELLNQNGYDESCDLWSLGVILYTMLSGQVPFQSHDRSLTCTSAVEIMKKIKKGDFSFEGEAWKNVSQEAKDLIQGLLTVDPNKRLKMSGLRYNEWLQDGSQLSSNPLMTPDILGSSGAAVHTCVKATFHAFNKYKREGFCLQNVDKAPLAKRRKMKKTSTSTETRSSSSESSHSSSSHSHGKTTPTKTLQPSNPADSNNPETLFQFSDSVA

Take `Cc1ccc(C(=O)Nc2cccc(C(C)(C)C)c2)cc1-c1ccc(C(=O)NCC2CC2)cc1`: the dissociation constant (Kd) (commonly the constant that tells how readily two partners part at equilibrium) at TXK (human) amounted to 80 nM.
Consider `CCS(=O)(=O)Nc1ccc2c(c1)[C@H](/C(=N/c1ccc(CN3CCCCC3)cc1)c1ccccc1)C(=O)N2`, for which the Kd worked out at 92 nM on BRSK2 (human); 10 nM on PTK2B (human); 94 nM at RPS6KA4 KD1 (human); 33 nM on PTK2 (human); 14000 nM at PAK2 (human); 19 nM on PRKAA1 (human). Moreover, the Kd worked out at 75 nM in [1], 31 nM at RPS6KA5 KD1 (human) and 52 nM on LTK (human).
